Source: patent publication US7250441B2, “Carbazole and cyclopentaindole derivatives to treat infection with Hepatitis C virus” (priority 2004, dated 2007)
pIC50: −log10 of the molar value.

Target: T1, HCV RdRp NS5B d21BK (NS5B from the BK strain, genotype 1b) (Hepatitis C virus genotype 1b, UniProt P26663)
T1 construct: NS5B from the BK strain (genotype 1b) is expressed in E coli as a protein in which the 21 C-terminal amino acids are replaced; made in house; host or cells: E. coli
Assay: Hepatitis C polymerase inhibition assay, radioactive nucleotide incorporation with filter capture
Format: biochemical
From the text: The ability of the compounds of formula (I) to inhibit Hepatitis C Polymerase was established by the following experimental procedure.
NS5B from the BK strain (genotype 1b) is expressed in E coli as a protein in which the 21 C-terminal amino acids are replaced with a short linker and a hexahistidine tag ([…]). The purified protein is mixed with radioactive nucleotides and allowed to replicate a heteropolymeric RNA substrate, primed by an endogenous short hairpin, resulting in an approximately 760 nt product. The radioactive product is captured on a filter and quantitated after removal of the unincorporated nucleotides.
(1) Compounds 10 μl at 10 μg/ml in 15% dimethylsulfoxide (DMSO)
When starting from 100 μg/ml compound stock in 1% DMSO, 5 μl 30% DMSO is dispensed per well. Next, 5 μl compound (100 μg/ml) is dispensed per well.
When starting from 50 μg/ml compound stock in 15% DMSO, 10 μl compound is added per well.
20 μl enzyme mix is added into each well of the assay plate. The compound and enzyme are incubated at room temperature for 15 minutes.
(3) Template mix (prepared in advance)
A tube of RNA (5 μg/tube stored in 75% ethanol and 0.3 M sodium acetate) is microcentrifuged for 20 minutes at 4° C. (one tube supplies 1-1.5 plates). Ethanol is removed from the tube by gently inverting the tube. The RNA is vacuum dried and re-suspended in 1 ml of DEPC water in a tightly capped tube. To dissolve RNA, the RNA solution is incubated on ice for ˜60 minutes and gently vortexed. It is spun briefly to ensure all RNA solution at the bottom of the tube before opening cap. The RNA solution is then gently transferred into a 5 ml or larger tube. Another 3 ml of DEPC water is added to obtain a total of 4 ml of volume.
The following volumes of reagents are added:
20 μl template mix per reaction is added (i.e. 20 ng of pOF per reaction or ˜3 nM)
(4) The reaction is incubated at room temperature (22-25° C.) for 2 hours.
(5) The reaction is quenched by adding 50 μl of 170 mM EDTA.
Final concentration of EDTA is 85 mM.
(6) The filters of Millipore multiscreen assay plate is pre-wet by adding 200 μl of 0.5 M sodium phosphate buffer, pH 7.0 into each well. This stands at room temperature for 2-3 minutes.
(7) The multiscreen filter plate is placed onto a Millipore Manifold under vacuum to allow buffer to flow through. After the vacuum is turned off, 80 μl of the reaction product is transferred into each well of the filter plate. This stands for 2-3 minutes prior to turning on the vacuum again to filter the reaction product.
(8) The vacuum is then removed. 200 μl of 0.5 M sodium phosphate buffer is added, pH 7.0, into each well. The vacuum is then turned on.
Step (8) is repeated three more times.
(9) Next the polypropylene bottom is removed, and the filter is spot dried with a paper towel. The filter plate is air-dried on a bench for 1 hour before adding 40 μl Super Mix scintillant. The top of the plate is sealed with a tape and the plate is placed into a Packard carrier or micro-beta carrier.
(10) The plate is counted using a Packard Topcount or micro-beta counter. Count (for example using Program 10) for ^33P in Top count or ^33P program in micro-beta.
The percent inhibition is calculated after background subtraction as a percent reduction of activity relative to the positive control (average value of the plate excluding the negative controls). For the primary screen hits were chosen as showing >75% inhibition.
See, Ferrari et al. 1999. J. Virology 73:1649-1654: “Characterization of soluble Hepatitis C virus RNA-dependent RNA polymerase expressed in E. coli and Takamizawa et al 1991” and J. Virology 65:1105-1113: “Structure and characterization of Hepatitis C virus genome isolated from human carriers,” both reference are hereby incorporated by reference.

T1 sequence (P26663 2420-2989): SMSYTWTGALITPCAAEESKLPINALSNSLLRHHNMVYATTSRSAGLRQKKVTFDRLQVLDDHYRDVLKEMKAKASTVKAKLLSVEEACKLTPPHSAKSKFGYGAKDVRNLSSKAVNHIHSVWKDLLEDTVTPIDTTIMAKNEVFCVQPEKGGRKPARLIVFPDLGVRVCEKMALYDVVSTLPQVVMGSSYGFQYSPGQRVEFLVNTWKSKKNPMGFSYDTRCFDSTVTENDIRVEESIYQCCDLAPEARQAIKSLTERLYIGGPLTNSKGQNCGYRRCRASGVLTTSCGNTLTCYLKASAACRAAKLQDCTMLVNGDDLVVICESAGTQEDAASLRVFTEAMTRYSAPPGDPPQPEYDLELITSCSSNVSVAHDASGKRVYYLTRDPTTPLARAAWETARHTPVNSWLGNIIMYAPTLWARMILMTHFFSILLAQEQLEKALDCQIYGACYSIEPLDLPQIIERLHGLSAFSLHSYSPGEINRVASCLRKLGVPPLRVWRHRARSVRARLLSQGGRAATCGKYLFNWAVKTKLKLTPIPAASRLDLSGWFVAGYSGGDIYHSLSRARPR

| SMILES | pIC50 |
| --- | --- |
| CCCC1(C(=O)O)CCCc2c1[nH]c1c(F)ccc(C#N)c21 (centres unmarked) [Example 25, 5-Cyano-8-fluoro-1-propyl-2,3,4,9-tetrahydro-1H-carbazole-1-carboxylic acid] | 5.00 |
| C=CCC1(C(=O)O)CCc2c1[nH]c1c(C)cc(F)c(Br)c21 (centres unmarked) [Example 10, 3-Allyl-8-bromo-7-fluoro-5-methyl-1,2,3,4-tetrahydro-cyclopenta[b]indole-3-carboxylic acid] | 5.49 |
| CCCCC1(C(=O)O)CCc2c1[nH]c1c(C)ccc(C#N)c21 (centres unmarked) [Example 15, 3-Butyl-8-cyano-5-methyl-1,2,3,4-tetrahydro-cyclopenta[b]indole-3-carboxylic acid] | 5.34 |
| CCCCC1(C(=O)O)CCc2c1[nH]c1c(Cl)ccc(Cl)c21 (centres unmarked) [Example 2, 3-Butyl-5,8-dichloro-1,2,3,4-tetrahydro-cyclopenta[b]indole-3-carboxylic acid] | 5.72 |
| C=CCC1(C(=O)O)CCc2c1[nH]c1c(C)cc(F)c(C#N)c21 (centres unmarked) [Example 19, 3-Allyl-8-cyano-7-fluoro-5-methyl-1,2,3,4-tetrahydro-cyclopenta[b]indole-3-carboxylic acid] | 5.20 |
| CCCCC1(C(=O)O)CCc2c1[nH]c1c(C)cc(F)c(Br)c21 (centres unmarked) [Example 6, 8-Bromo-3-butyl-7-fluoro-5-methyl-1,2,3,4-tetrahydro-cyclopenta[b]indole-3-carboxylic acid] | 5.68 |
| C=CCC1(C(=O)O)CCc2c1[nH]c1c(C)ccc(Br)c21 (centres unmarked) [Example 8, 3-Allyl-8-bromo-5-methyl-1,2,3,4-tetrahydro-cyclopenta[b]indole-3-carboxylic acid] | 5.24 |
| N#Cc1ccc(F)c2[nH]c3c(c12)CCCC3(CC1CCC1)C(=O)O (centres unmarked) [Example 26, 5-Cyano-1-cyclobutylmethyl-8-fluoro-2,3,4,9-tetrahydro-1H-carbazole-1-carboxylic acid] | 4.80 |
| CCCC1(C(=O)O)CCCc2c1[nH]c1c(C)ccc(C#N)c21 (centres unmarked) [Example 28, 5-Cyano-8-methyl-1-propyl-2,3,4,9-tetrahydro-1H-carbazole-1-carboxylic acid] | 4.82 |
| CCCCC1(C(=O)O)CCc2c1[nH]c1c(C)cc(F)c(C#N)c21 (centres unmarked) [Example 17, 3-Butyl-8-cyano-7-fluoro-5-methyl-1,2,3,4-tetrahydro-cyclopenta[b]indole-3-carboxylic acid] | 5.82 |
| CCCC1(C(=O)O)CCCc2c1[nH]c1c(Cl)ccc(Cl)c21 (centres unmarked) [Example 24, 5,8-Dichloro-1-propyl-2,3,4,9-tetrahydro-1H-carbazole-1-carboxylic acid] | 5.49 |
| CCCC1(C(=O)O)CCc2c1[nH]c1c(F)ccc(C#N)c21 (centres unmarked) [Example 21, 8-Cyano-5-fluoro-3-propyl-1,2,3,4-tetrahydro-cyclopenta[b]indole-3-carboxylic acid] | 5.09 |
| CCCC1(C(=O)O)CCc2c1[nH]c1c(C)cc(F)c(Br)c21 (centres unmarked) [Example 13, 8-Bromo-7-fluoro-5-methyl-3-propyl-1,2,3,4-tetrahydro-cyclopenta[b]indole-3-carboxylic acid] | 5.70 |
| CCCCC1(C(=O)O)CCc2c1[nH]c1c(C)cc(F)cc21 (centres unmarked) [Example 7, 3-Butyl-7-fluoro-5-methyl-1,2,3,4-tetrahydro-cyclopenta[b]indole-3-carboxylic acid] | 5.04 |
| CCCC1(C(=O)O)CCCc2c1[nH]c1c(Cl)ccc(C(F)(F)F)c21 (centres unmarked) [Example 27, 8-Chloro-1-propyl-5-trifluoromethyl-2,3,4,9-tetrahydro-1H-carbazole-1-carboxylic acid] | 5.24 |
| CCCCC1(C(=O)O)CCc2c1[nH]c1c(C)ccc(Br)c21 (centres unmarked) [Example 4, 8-Bromo-3-butyl-5-methyl-1,2,3,4-tetrahydro-cyclopenta[b]indole-3-carboxylic acid] | 5.17 |

| SMILES | pIC50 |
| --- | --- |
| C=CCC1(CC(=O)O)CCCc2c1[nH]c1c(F)ccc(C#N)c21 (centres unmarked) [Example 31, (1-Allyl-5-cyano-8-fluoro-2,3,4,9-tetrahydro-1H-carbazol-1-yl)-acetic acid] | 6.43 |
| CCCC1(C(=O)O)CCc2c1[nH]c1c(C)ccc(Br)c21 (centres unmarked) [Example 11, 8-Bromo-5-methyl-3-propyl-1,2,3,4-tetrahydro-cyclopenta[b]indole-3-carboxylic acid] | 5.72 |
| CCCCC1(C(=O)O)CCc2c1[nH]c1c(F)ccc(C#N)c21 (centres unmarked) [Example 16, 3-Butyl-8-cyano-5-fluoro-1,2,3,4-tetrahydro-cyclopenta[b]indole-3-carboxylic acid] | 5.27 |
| CCCC1(C(=O)O)CCc2c1[nH]c1c(C)ccc(C#N)c21 (centres unmarked) [Example 20, 8-Cyano-5-methyl-3-propyl-1,2,3,4-tetrahydro-cyclopenta[b]indole-3-carboxylic acid] | 5.33 |
| CCCC1(CC(=O)O)CCCc2c1[nH]c1c(C(N)=O)ccc(C#N)c21 (centres unmarked) [Example 33, (8-Carbamoyl-5-cyano-1-propyl-2,3,4,9-tetrahydro-1H-carbazol-1-yl)-acetic acid] | 5.23 |
| C=CCC1(C(=O)O)CCc2c1[nH]c1c(F)ccc(C#N)c21 (centres unmarked) [Example 14, 3-Allyl-8-cyano-5-fluoro-1,2,3,4-tetrahydro-cyclopenta[b]indole-3-carboxylic acid] | 4.84 |
| CCC1(C(=O)O)CCCc2c1[nH]c1c(Cl)ccc(Cl)c21 (centres unmarked) [Example 23, 5,8-Dichloro-1-ethyl-2,3,4,9-tetrahydro-1H-carbazole-1-carboxylic acid] | 5.01 |
| CCCC1(C(=O)O)CCc2c1[nH]c1c(Cl)ccc(Cl)c21 (centres unmarked) [Example 3, 5,8-Dichloro-3-propyl-1,2,3,4-tetrahydro-cyclopenta[b]indole-3-carboxylic acid] | 6.26 |
| C=CCC1(C(=O)O)CCc2c1[nH]c1c(F)ccc(Br)c21 (centres unmarked) [Example 9, 3-Allyl-8-bromo-5-fluoro-1,2,3,4-tetrahydro-cyclopenta[b]indole-3-carboxylic acid] | 5.19 |
| C=CCC1(C(=O)O)CCc2c1[nH]c1c(C)ccc(C#N)c21 (centres unmarked) [Example 18, 3-Allyl-8-cyano-5-methyl-1,2,3,4-tetrahydro-cyclopenta[b]indole-3-carboxylic acid] | 4.96 |
| C=CCC1(CC(=O)O)CCCc2c1[nH]c1c(C#N)ccc(C#N)c21 (centres unmarked) [Example 34, (1-Allyl-5,8-dicyano-2,3,4,9-tetrahydro-1H-carbazol-1-yl)-acetic acid] | 5.47 |
| CCCC1(CC(=O)O)CCCc2c1[nH]c1c(F)ccc(C#N)c21 (centres unmarked) [Example 32, (5-Cyano-8-fluoro-1-propyl-2,3,4,9-tetrahydro-1H-carbazol-1-yl)-acetic acid] | 5.70 |
| C=CCC1(CC(=O)O)CCCc2c1[nH]c1c(F)ccc(F)c21 (centres unmarked) [Example 29, (1-Allyl-5,8-difluoro-2,3,4,9-tetrahydro-1H-carbazol-1-yl)-acetic acid] | 4.49 |
| CCCC1(CC(=O)O)CCCc2c1[nH]c1cc(F)cc(F)c21 (centres unmarked) [Example 30, (5,7-Difluoro-1-propyl-2,3,4,9-tetrahydro-1H-carbazol-1-yl)-acetic acid] | 4.51 |
| CCCC1(C(=O)O)CCc2c1[nH]c1c(F)ccc(Br)c21 (centres unmarked) [Example 12, 8-Bromo-5-fluoro-3-propyl-1,2,3,4-tetrahydro-cyclopenta[b]indole-3-carboxylic acid] | 5.54 |
| CCCC1(CC(=O)O)CCCc2c1[nH]c1cccc(C#N)c21 (centres unmarked) [Example 36, (5-Cyano-1-propyl-2,3,4,9-tetrahydro-1H-carbazol-1-yl)-acetic acid] | 5.02 |
